# According to PubChem BioAssay (NCI):
# Several values for one entry are separate records, joined by “and”; a condition that tells them apart may be missing. Identical values can stand only once.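 Values below derive from 48-hour exposures of cells grown in 96-well plates, with endpoints linearly interpolated between the two concentrations bracketing the appropriate inhibition level. The concentration for 50% growth inhibition is given as GI50. TGI is the concentration that stops growth completely.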
# How the values were obtained:
# Assay in all cases: NCI tumour cell line growth inhibition, 48 h
# [1] = test system: UO-31 renal
# [2] = test system: ACHN renal
# [3] = test system: HL-60(TB) leukemia
# [4] = test system: HCT-116 colon
# [5] = test system: MALME-3M melanoma
# [6] = test system: NCI/ADR-RES ovarian
# [7] = test system: NCI-H522 lung
# [8] = test system: SF-295 CNS
# [9] = test system: SF-268 CNS
# [10] = test system: NCI-H226 lung
Compound,GI50 [1] [µM],TGI [1] [µM],GI50 [2] [µM],TGI [2] [µM],GI50 [3] [µM],TGI [3],GI50 [4] [µM],TGI [4] [µM],GI50 [5] [µM],TGI [5],GI50 [6] [µM],TGI [6] [µM],GI50 [7] [µM],TGI [7],GI50 [8] [µM],TGI [8] [µM],GI50 [9] [µM],TGI [9],GI50 [10] [µM],TGI [10] [µM]
C[C@H]1c2ccccc2CN1CCCOc1cc2c(cc1OCC1CC1)C1(CCCC1)C(N)=N2,1.02,3.04,1.8,6.69,1.21,3.16 µM,0.95,2.26,0.888,1.68 µM,2.84,10.5,1.66,6.62 µM,1.89,6.71,2.94,10.3 µM,1.02,2.9
Cc1nn(C(=O)c2ccncc2)c2c1C(c1cccc([N+](=O)[O-])c1)SC(N)=N2 (stereo not drawn),–,–,–,> 10,–,> 10 µM,–,> 10,–,> 10 µM,–,> 10,–,> 10 µM,–,> 10,–,> 10 µM,–,> 10
COc1cccc2c1[C@H]1CO[C@H]3C4C[C@H](C(=O)O)C([C@@H](C2)N13)N4C (stereo partly drawn),–,7.72,–,–,0.368,4.03 µM and 1.85 µM,–,–,0.696,4.8 µM and 1.6 µM,–,7.74,0.0497,0.914 µM and 0.109 µM,–,> 41.8,1.13,7.43 µM and > 32 µM,–,5.59
CCN1C(=O)N(CC)C2C1NN=c1s/c(=C\c3ccc[nH]3)c(=O)n12 (stereo not drawn),0.719,> 100,0.538,> 100,0.285,1.4 µM,0.453,> 100,0.546,> 100 µM,0.413,> 100,0.244,8.34 µM,0.334,> 40.3,0.7,> 100 µM,–,> 100
O=NN(CCCl)C(=O)NC1CCC(=O)NC1=O (stereo not drawn),–,1250,–,> 1250,–,359 µM,–,605,–,481 µM,–,710,–,485 µM,–,331,–,615 µM,–,583
O=C1CSC(c2ccccc2O)N1c1nnc(Cn2ccnc2)o1 (stereo not drawn),4.35,> 100,4.96,> 100,1.46,> 100 µM,9.86,43.7,4.43,26.2 µM,3.18,29.6,12,33 µM,3.11,> 100,10.8,48 µM,37.2,> 100
O=C1/C(=C/c2cccc(Br)c2)COc2ccc(O)c(O)c21,0.958,2.14,1.24,2.5,0.969,4.05 µM,1.08,2.47,1.49,3.06 µM,2.03,10.3,0.175,0.361 µM,2.75,7.39,1.63,4.08 µM,2.4,6.81
Cc1c2ccncc2c(C)c2c1c1cc(CO)ccc1n2C,0.304,3.96,0.362,9.39,0.854,5.6 µM,0.175,1.66,0.622,2.51 µM,0.551,7.5,0.661,3.81 µM,0.383,2.5,0.468,7.81 µM,–,–
N/C(=N\c1nc2ccccc2s1)NC(=NC1CCCCC1)NC1CCCCC1,1.27,2.55,1.6,2.96,1.83,4.35 µM,1.43,3.01,1.52,3.13 µM,1.64,3.3,1.89,4.22 µM,1.64,3.03,1.81,3.65 µM,1.67,3.23
Cc1oc2c(c1C(=O)N1CC[C@@H](N)C1)C(=O)c1c(c(O)c3ccccc3c1O)C2=O,0.421,2.44,0.629,11.1,1.17,4.31 µM,1.28,4.59,1.78,7.62 µM,2.39,8.56,1.39,4.77 µM,0.272,1.79,1.83,10.6 µM,1.52,22.6
CC1(C)CC2=C(Sc3ccccc3N2)C(=O)C1C(=O)C(=O)Nc1cc(Cl)ccc1Cl (stereo not drawn),–,> 100,–,> 100,–,> 100 µM,–,> 100,–,> 100 µM,–,> 100,–,> 100 µM,–,> 100,–,> 100 µM,–,> 100
O=c1cccc(C#CC#CCCCO)o1,2.17,> 100,12.4,24.9,2.24,5.39 µM,3.06,8.49,0.788,3.78 µM,9.47,> 44.2,3.55,> 32 µM,13.5,28.9,7.71,18.5 µM,13.8,32.5
CN1CCN(c2cc3nc4ccccc4n(-c4ccc(Cl)cc4)c-3cc2=N)CC1,29.2,> 100,23.4,> 100,–,4.35 µM,22.2,57.2,17.2,33.1 µM,32.1,> 100,21.5,52.6 µM,23.4,59.5,32.1,> 100 µM,60.7,> 100
NC(=O)c1cccc(-c2cc(C(N)=O)ccc2Cl)c1,4.61,> 100,6.46,> 100,2.42,5.91 µM,2.35,> 100,3.98,> 100 µM,1.51,25.9,2.39,23.2 µM,2.41,21.2,5.68,> 100 µM,13.4,> 100
OCc1ccc(N2CCCC2)cc1Cl,17.2,50,29.2,> 75.3,13.7,> 75.6 µM,1.6,> 100,27.3,73 µM,34.9,> 100,14.5,32.5 µM,1.78,37.4,> 61.3,> 100 µM,0.146,0.365
COc1ccc2c(c1)C(=O)c1c-2c(N2CCNCC2)nc2ccccc12,2.29,6.66,2.78,8.24,1.8,5.16 µM,–,–,1.79,4.34 µM,6.33,23.7,3.95,17 µM,10.4,27.4,2.14,11.9 µM,10.9,28.9
O=S(=O)(NC1=NCCN1C(=S)SN1CCn2c1nsc2=S)c1cccc(OC(F)(F)F)c1,14.1,28.1,13.5,26.3,> 100,> 100 µM,10.2,21.9,6.75,23.3 µM,12,44.8,6.85,28.3 µM,23.6,63.3,11.2,34.4 µM,16.2,31.7
COc1cccc(CC(C)=C(c2ccc(OCCCN(C)C)cc2)c2ccc(OCCCN(C)C)cc2)c1,0.424,0.795,0.501,0.991,0.506,1.02 µM,0.447,0.839,0.403,0.774 µM,0.548,1.28,0.452,1 µM,0.658,1.87,0.683,2.05 µM,2.84,6.95
CC/C=C\C/C=C/C=C1/C(=O)C=C[C@@H]1C/C=C\CCCC(=O)OC,1.64,3.6,1.97,3.99,2.24,12.5 µM,0.631,2.43,2.5,6.64 µM,3.32,> 100,1.78,4.24 µM,3.5,14,3.81,24.7 µM,–,–
Cn1nnc2c(C(N)=O)ncn2c1=O,–,> 100,–,> 100,–,> 100 µM,–,> 100,–,> 100 µM,–,> 100,–,> 100 µM,–,> 100,–,> 100 µM,–,> 100
O/N=C1\CCc2nonc2\C1=N/Nc1ccccc1,–,> 100,–,> 100,–,> 100 µM,–,> 100,–,> 100 µM,–,> 100,–,–,–,> 100,–,> 100 µM,–,> 100
NNc1c2ccccc2nc2ccccc12,2.76,19.5,5.31,33.9,1.78,16.9 µM,3.99,17.6,5.03,36.1 µM,3.76,27.4,2.59,14.4 µM,1.88,14.9,5.94,> 100 µM,4.26,43
CC(=O)OC(C)C(OC(C)=O)C(OC(C)=O)C(/C=C/C1CC=CC(=O)O1)OC(C)=O (stereo not drawn),42.8,> 100,33.7,> 100,20.4,43.3 µM,20.4,48.4,36.5,> 100 µM,> 100,> 100,22.9,60.3 µM,51,> 100,27.5,75.7 µM,42.6,> 100
Cc1cccc2c(Nc3ccc(NS(C)(=O)=O)cc3)c3ccc([N+](=O)[O-])cc3nc12,1.77,13,0.661,4.13,2.07,7.09 µM,0.927,5.24,1.21,3.43 µM,8.3,47.1,1.11,2.52 µM,0.29,7.21,0.355,4.38 µM,0.755,4.08
Nc1n[nH]c(N)c1N=Nc1ccc(O)cc1,13.7,66.3,15.6,61.1,6.44,35.4 µM,18.9,89.9,24.6,60.3 µM,22.6,92.4,24.3,> 100 µM,23.3,82.5,20.5,82.6 µM,17.7,67.5
NCCC(=O)NC(Cc1cnc[nH]1)C(=O)O (stereo not drawn),–,> 100,–,> 100,–,> 100 µM,–,> 100,–,> 100 µM,–,> 100,–,> 100 µM,–,> 100,–,> 100 µM,–,> 100
CC(C)=Nn1cnc(C(=N)C#N)c1N,–,> 100,–,> 100,–,> 100 µM,–,> 100,–,> 100 µM,–,> 100,–,> 100 µM,–,> 100,–,> 100 µM,–,> 100
Cc1ccc(Sc2oc(-c3ccc(C)cc3)nc2[P+](c2ccccc2)(c2ccccc2)c2ccccc2)cc1,0.24,0.935,0.311,1.16,0.23,0.566 µM,0.26,1.26,0.241,0.813 µM,0.49,2.21,0.148,0.379 µM,0.291,1.02,0.399,1.66 µM,–,–
C=C1C(=O)O[C@H]2[C@H]1CC/C(CNC(=O)/C=C/c1ccccc1)=C\CC[C@@]1(C)O[C@@H]21,1.21,2.56,0.755,2.03,–,–,0.465,1.75,1.45,3.29 µM,3.29,14.5,0.357,1.71 µM,5.25,18.7,2.86,8.88 µM,2.5,6.59
